What is called Km is the substrate concentration at which the rate is half of its maximum.

The text below walks through data of patent US5462868A (priority 1991, dated 1995).

Where two headings read alike, the source gives them in different places.

In series [1] the test system is cocaine esterase. In kind it is biochemical, Pseudomonas maltophilia MB11L. The settings on record: 1 mM inhibitor; for % ACTIVITY RELATIVE TO CONTROL: preincubated 30° C. 10 min, 2 mM cocaine, 0.9 U/ml=100% activity; for inhibition of cocaine esterase activity (in words): 30° C., 10 min. The procedure:
(§1) The reaction was stopped by the addition of 10 μl of concentrated phosphoric acid and protein pelleted at 13,000 rpm in a minifuge. The amount of benzoic acid produced was determined by HPLC analysis of 50 μl of the supernatant and comparison to standard samples (0-1 mM) treated identically. Standard curves of peak height plotted against benzoic acid concentration were linear over the range 0-1 mM. Controls containing no enzyme solution were run to allow for background hydrolysis. An assay was considered invalid if no cocaine remained at the end of the assay (seen by HPLC). One unit of esterase activity is defined as the amount of enzyme required to produce 1 μmol of benzoic acid in 1 min at 30° C.
The possible inhibitors tested were phenylmethylsulphonyl fluoride (PMSF), eserine, para-hydroxymercuribenzoate (pHMB), benzoate and ecgonine methyl ester.

Series [2] relates to cocaine esterase. Type of series: biochemical, Pseudomonas maltophilia MB11L. As to conditions: for Km: read-out: Apparent Km. The procedure: as §1
Reactions were stopped using concentrated phosphoric acid (10 μl) to precipitate protein, which was removed by centrifugation at 13,000 rpm in a Microfuge. Rates of substrate hydrolysis were calculated from HPLC analyses of the incubations. Non-enzymic rates of hydrolysis were calculated from control samples containing no enzyme, and the enzyme assays corrected accordingly. Standard samples of the relevant free acids were used to calibrate each assay. […] Lineweaver-Burke and Eadie-Hofstee plots were used to obtain these values (see Fersht, 1985, Enzyme Structure and Mechanism, 2nd Edition, Publishers: W. H. Freeman & Co., Oxford for methods).

Series [3] is described as follows: Screen of esterases for activity against cocaine (HPLC). Type of series: biochemical. The settings on record: 2 mM cocaine in 50 mM buffer of pH suited for maximum enzyme activity.
A short description of series [4]: Specific activity of esterases against their usual substrate. Type of series: biochemical. As to conditions: usual substrate of each enzyme. The method, then: Control incubations containing no enzyme were performed under each set of conditions to allow accurate assaying of enzyme activity.
Setting [5] is: purified cocaine esterase, 50 mM bis-tris-propane buffer pH 8.0, 30° C., 10 min, mean values.

Regarding `O=C(O)c1ccccc1` [Benzoate, benzoate], the “% ACTIVITY RELATIVE TO CONTROL” value in the series with cocaine esterase [1] is recorded as 92%.
With `COC(=O)[C@H]1[C@@H](OC(=O)c2ccccc2)C[C@@H]2CC[C@H]1N2C` [Cocaine], in the series with cocaine esterase [2] (setting [5]), the “Apparent Vmax” value is 29.5 U/mg and the Km came out at 360 µM.
As for `COC(=O)[C@@H]1[C@H]2CC[C@@H](C[C@@H]1O)N2C` [Ecgonine methyl ester, ecgonine methyl ester], the “% ACTIVITY RELATIVE TO CONTROL” value in the series on cocaine esterase [1] amounted to 82%.
With `CNC(=O)Oc1ccc2c(c1)[C@]1(C)CCN(C)[C@@H]1N2C` [Eserine, eserine], in the series on cocaine esterase [1], the “inhibition of cocaine esterase activity (in words)” value is “relatively ineffective” and the “% ACTIVITY RELATIVE TO CONTROL” value is reported as 95%.
With `CCOC(=O)c1ccccc1O` [Ethyl 2-hydroxycenzoate], the Km with cocaine esterase [2] (setting [5]) is 1750 µM.
On to `CCOC(=O)c1cccc(O)c1` [Ethyl 3-hydroxybenzoate], for which, in the series on cocaine esterase [2] (setting [5]), the “Apparent Km” value is given as “No activity” and the “Apparent Vmax” value is listed as “No activity”.
Consider `CCOC(=O)c1ccc(O)cc1` [Ethyl 4-hydroxybenzoate], for which, in the series with cocaine esterase [2] (setting [5]), the “Apparent Km” value was “No activity” and the “Apparent Vmax” value is “No activity”.
On to `CCOC(=O)c1ccccc1` [Ethyl benzoate], for which, in the series with cocaine esterase [2] (pH 8), the “Apparent Vmax” value was 65.0 U/mg and the Km came to 1890 µM.
In the case of `O=S(=O)(F)Cc1ccccc1` [PMSF, phenylmethylsulphonyl fluoride], in the series with cocaine esterase [1], the “inhibition of cocaine esterase activity (in words)” value is recorded as “total inactivation” and the “% ACTIVITY RELATIVE TO CONTROL” value is listed as 0%.
Taken in the same sequence, the figures for `O=C(O)c1cc[c]([Hg][OH])cc1` [pHMB, para-hydroxymercuribenzoate] were “relatively ineffective” and 86%.
Regarding “Electric eel acetyl-cholinesterase: commercially available esterase enzyme”, in series [3], the “SPECIFIC ACTIVITY (U/mg) AGAINST COCAINE” value worked out at 0 U/mg. Besides, the “SPECIFIC ACTIVITY (U/mg) AGAINST USUAL SUBSTRATE” value in series [4] is 320 U/mg.
On the same counts, the results for “Horse serum butyryl-cholinesterase: commercially available esterase enzyme” are 0.098 U/mg and 14 U/mg.

B1: Porcine pancreatic lipase: commercially available esterase enzyme (protein, UniProt P00591 1-450, looked up)
Pancreatic triacylglycerol …: SEVCFPRLGCFSDDAPWAGIVQRPLKILPWSPKDVDTRFLLYTNQNQNNYQELVADPSTITNSNFRMDRKTRFIIHGFIDKGEEDWLSNICKNLFKVESVNCICVDWKGGSRTGYTQASQNIRIVGAEVAYFVEVLKSSLGYSPSNVHVIGHSLGSHAAGEAGRRTNGTIERITGLDPAEPCFQGTPELVRLDPSDAKFVDVIHTDAAPIIPNLGFGMSQTVGHLDFFPNGGKQMPGCQKNILSQIVDIDGIWEGTRDFVACNHLRSYKYYADSILNPDGFAGFPCDSYNVFTANKCFPCPSEGCPQMGHYADRFPGKTNGVSQVFYLNTGDASNFARWRYKVSVTLSGKKVTGHILVSLFGNEGNSRQYEIYKGTLQPDNTHSDEFDSDVEVGDLQKVKFIWYNNNVINPTLPRVGASKITVERNDGKVYDFCSQETVREEVLLTLNPC
As to B1, the “SPECIFIC ACTIVITY (U/mg) AGAINST COCAINE” value in series [3] amounted to 0 U/mg. Also, the “SPECIFIC ACTIVITY (U/mg) AGAINST USUAL SUBSTRATE” value in series [4] is 50 U/mg.
